Measured values from patent US6599896B1 (Les Laboratoires Servier, priority 1999, dated 2003).

Key:
[1] = test system: cortical neurons in culture; experiment: In vitro neurotoxicity caused by hypoxia in cortical cells (LDH activity); assay type: cell-based, rat; conditions: 20 μM; 3 hours hypoxia, LDH after 24 hours
Protocol: (§1) Cortical cells are extracted from Sprague-Dawley rat foetuses and cultured in MEM (minimum essential medium) containing 5% horse serum and 5% calf foetus serum.
After morphological examination of the cells, the culture supernatants are collected and the lactate dehydrogenase (LDH) activity therein is measured.

[2] = test system: cortical neurons in culture; experiment: In vitro neurotoxicity caused by glutamate in cortical cells (LDH activity); assay type: cell-based, rat; conditions: 20 μM; 1 mM glutamate 15 minutes
Protocol: as §1
Just before treatment with glutamate, the culture medium is replaced by 300 μl of saline solution buffered with HEPES. The cells are incubated for 15 minutes together with 1 mM glutamate. The culture media are then replaced by 200 μl of MEM without serum and the cells are incubated at 37° C. for 24 hours. After morphological examination of the cells, the culture supernatants are collected and the lactate dehydrogenase (LDH) activity therein is measured.

motoneurons = conditions: Duong et al., Br. J. Pharmacol., 128, 1385-1392; cited from earlier work
astrocytes in culture = experiment: ATP levels associated with hypoxia in astrocytes maintained in culture; assay type: cell-based, rat; conditions: hypoxia 24 hours
Protocol: Cultures of astrocytes are obtained using new-born rats according to the technique described by Booher J. and Sensenbrenner M. (Neurobiology 2, 97-105, […]). They are used three weeks after being placed in culture. […] The concentration of ATP is determined by luminescence and expressed in picomoles of ATP per mg of cellular proteins. The experiments are conducted in triplicate.

AMPA/kainate receptors = experiment: Patch clamp: current induced by kainate in telencephalic cells in primary culture; assay type: cell-based, rat
Protocol: Telencephalic cells of 16.5 day-old Wistar rat fetuses were cultured for 12 days. Patch clamp experiments were then conducted at ambient temperature in the following medium: 5 mM KCl, 140 mM NaCl, 10 mM Hepes, 2 mM MgCl2, 2 mM CaCl2 and 10 mM D-glucose (pH=7.3), and the micropipettes were filled with 140 mM KCl, 4 mM NaCl, 10 mM Hepes, 5 mM EGTA and 0.5 mM CaCl2 (pH=7.2).
That effect is measured by the patch clamp technique.

mitochondrial genome = experiment: In vivo expression of genes implicated in oxidative stress (RT-PCR, amygdala); conditions: rat, 15 mg/kg i.p. for 21 days
Protocol: After sacrifice of the animals and removal of the brains, the total RNA of the amygdala region is extracted and then subjected to an RT-PCR test. In brief, reverse transcription is performed on the extracted RNA, the transcription products are then amplified by chain polymerisation (PCR) and then subjected to high-resolution polyacrylamide gel electrophoresis. The bands of interest are removed from the gel, re-amplified, sequenced and analysed.

[3] = test system: purified embryonic motoneurons; experiment: Death of motoneurons deprived of growth factors (survival count); assay type: cell-based, rat; conditions: BDNF 1 ng/ml; 2.5 days of culture
Protocol: Pregnant Sprague-Dawley rats are sacrificed on the 14th day of embryo life. The motoneurons of the embryos are purified according to the method published by C.
The motoneurons are seeded a density of approximately 1000 cells per 16-mm well and are cultured in Neurobasal, supplemented by B27 and horse serum. […] The surviving motoneurons are counted directly.
After 2.5 days of culture, motoneurons are counted in 2 areas of each of the 4 wells. Absolute value per area are presented (mean+/−s.e.m., n=8).

C[C@]12N[C@H](Cc3ccccc31)c1ccccc12 [MK-801]
protection against the effects of hypoxia (LDH activity) [1]: 86.3%
protection against toxicity caused by glutamate (LDH activity) [2]: total protection

Cl.FC(F)(F)c1cccc(C2=CCN(CCc3ccc4ccccc4c3)CC2)c1 [SR57746A]
activity on the survival of motoneurons in vitro (motoneurons): active

CN1c2ccccc2C(NCCCCCCC(=O)O)c2ccc(Cl)cc2S1(=O)=O (stereo not drawn) [tianeptine]
percentage protection of astrocytes (ATP level) (astrocytes in culture; 10 μM (maximal)): 68%
protection of astrocytes (ATP level) (astrocytes in culture; 0.1-1-10 μM, FIG. 4): protects astrocytes in culture in a dose-dependent manner
effect on the current entering the cells, compound on its own (direct agonism) (AMPA/kainate receptors; 10 μM, without kainate): no effect
effect on the current induced by kainate (AMPA/kainate receptors; 4, 10 and 25 μM, kainate 250 μM, FIG. 1): increases the current induced by kainate
expression of mitochondrial genes in the amygdala (mitochondrial genome): overexpression of the mitochondrial genes of NADH ubiquinone reductase (sub-units 2 and 5) and also of genes coding for 16S rRNA, leu-tRNA and val-tRNA

B1: Brain-Derived Neurotrophic Factor (protein, UniProt P23560 19-247, looked up)
Neurotrophic factor BDNF …: APMKEANIRGQGGLAYPGVRTHGTLESVNGPKAGSRGLTSLADTFEHVIEELLDEDQKVRPNEENNKDADLYTSRVMLSSQVPLEPPLLFLLEEYKNYLDAANMSMRVRRHSDPARRGELSVCDSISEWVTAADKKTAVDMSGGTVTVLEKVPVSKGQLKQYFYETKCNPMGYTKEGCRGIDKRHWNSQCRTTQSYVRALTMDSKKRIGWRFIRIDTSCVCTLTIKRGR
notes: growth factor, 1 ng/ml, positive control for motoneuron survival
survival of motoneurons [3]: protect the motoneurons from cell death
